Measurements: PubChem BioAssay AID463203 (Broad Institute, 2010)
Calls of active or inactive are those of the source.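 The calls were made as follows: active = more than half of replicate measurements showing over 20% loss of kinase signal relative to plate controls; inconclusive = some but at most half of replicates over 20% loss; inactive = no replicate over 20% signal loss.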

Molecular target: Glycogen synthase kinase-3 alpha (Homo sapiens) (UniProt P49840)
Assay: concentration-response blocking of human GSK3A – biochemical, luminescence, cell-free homogeneous, retest, dose response (AID 463203)
Conditions: GSK-3 alpha enzyme, ADP-Glo luminescence, 60 min

Chain of Glycogen synthase kinase-3 alpha (Homo sapiens) (P49840 whole entry, looked up): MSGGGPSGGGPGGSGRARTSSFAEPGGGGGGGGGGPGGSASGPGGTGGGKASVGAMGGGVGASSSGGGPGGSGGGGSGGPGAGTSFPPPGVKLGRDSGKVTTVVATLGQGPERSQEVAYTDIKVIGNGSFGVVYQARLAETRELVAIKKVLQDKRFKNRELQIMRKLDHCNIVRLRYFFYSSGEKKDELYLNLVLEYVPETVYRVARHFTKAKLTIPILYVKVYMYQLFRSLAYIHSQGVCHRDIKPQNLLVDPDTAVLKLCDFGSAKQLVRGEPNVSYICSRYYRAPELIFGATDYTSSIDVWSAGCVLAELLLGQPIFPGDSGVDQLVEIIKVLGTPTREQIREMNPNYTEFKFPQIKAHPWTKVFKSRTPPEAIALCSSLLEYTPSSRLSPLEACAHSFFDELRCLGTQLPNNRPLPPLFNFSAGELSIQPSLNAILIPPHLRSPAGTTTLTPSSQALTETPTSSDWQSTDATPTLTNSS

CC(C)(C)NC(=O)/C(=C\C=C\c1ccccc1)NC(=O)c1ccc([N+](=O)[O-])cc1
AC50: > 30 µM (inactive)

O=C(OCC1OC2OC3(CCCCC3)OC2C2OC3(CCCCC3)OC12)c1ccccc1 (configuration not stated)
AC50: > 30 µM (inactive)

CCC(=NCCCn1ccnc1)c1c(O)n(-c2ccccc2)c(=O)[nH]c1=O
AC50: 27.8 µM

COc1cc(CN2CCN(Cc3ccc([N+](=O)[O-])cc3)CC2)c([N+](=O)[O-])cc1OC
AC50: > 30 µM (inactive)

O=C(CSc1nc2[nH]ncc2c(=O)n1-c1ccccc1Br)NCc1ccccc1Cl
AC50: > 30 µM (inactive)

COc1ccc(COC(=O)C2=C(C)NC(=O)NC2c2ccc(OC)c(OC)c2)cc1 (configuration not stated)
AC50: > 30 µM (inactive)

O=C(COc1ccccc1Br)NC1CC1
AC50: > 30 µM (inactive)

Cc1ccc(NC(=O)c2cc(-n3cnnc3)ccc2Cl)cc1
AC50: > 30 µM (inactive)

O=C(CSc1nc2[nH]ncc2c(=O)n1-c1ccccc1)NCc1cccs1
AC50: > 30 µM (inactive)

C[C@H](NC(=O)c1nc[nH]c1C(=O)NC1CCN(C(=O)OC(C)(C)C)CC1)C(=O)OC(C)(C)C
AC50: 31.3 µM

COc1ccc(-c2cc(C(=O)N3CCN(c4ccccc4)CC3)no2)cc1
AC50: > 30 µM (inactive)

Cc1ccc(-c2cn3cccnc3n2)cc1NC(=O)c1cccs1
AC50: > 30 µM (inactive)

COc1ccc(/C=C/c2nc3ccccc3n2C)cc1
AC50: 11.4 µM

COc1ccc(-n2c(C)c([N+](=O)[O-])c3ccc(O)c(CN4CCCCC4)c32)cc1
AC50: 19.1 µM

CCOC(=O)N1CCC(N2CCN(S(=O)(=O)c3ccc4ccccc4c3)CC2)CC1
AC50: > 30 µM (inactive)

Cc1cccc(Nc2ncccc2C(=O)O)c1C
AC50: > 30 µM (inactive)

CCSc1nc(N)c(C#N)c(-c2ccco2)c1C#N
AC50: > 30 µM (inactive)

C=CCNc1nc(N)c([N+](=O)[O-])c(N2CCCCCC2)n1
AC50: 29.1 µM

COC(=O)c1oc2ccc(Cl)cc2c1N
AC50: > 30 µM (inactive)

Cc1cc2nc(-c3ccc(SCC(=O)NC(C)C)nc3)[nH]c2cc1C
AC50: > 30 µM (inactive)

CC[n+]1c(/C=C/C=C/N(C(C)=O)c2ccccc2)sc2ccccc21
AC50: > 30 µM (inactive)

Cc1nc(NCC2CCCO2)nc2c1C(=O)CC(C)C2 (configuration not stated)
AC50: > 30 µM (inactive)

NC(=O)c1cc([N+](=O)[O-])c(Cl)cc1NCc1cccnc1
AC50: 4.43 µM

O=[N+]([O-])c1cccnc1N1CCCNCC1
AC50: > 30 µM (inactive)

CC(C)CC(=O)Nc1ccc(-c2cn3cccnc3n2)cc1
AC50: > 30 µM (inactive)

Cc1ccc(S(=O)(=O)c2c(C(=O)c3ccccc3)cnc3cc4c(cc23)OCCO4)cc1
AC50: > 30 µM (inactive)

Cc1ccc(CSCCNC(=O)c2ccccc2)cc1
AC50: > 30 µM (inactive)

CNC(=O)CSc1nnc(-c2ccco2)n1-c1ccccc1OC
AC50: > 30 µM (inactive)

Cc1ccc2oc(=O)c3cnn(CC(=O)N4CCN(c5ccccc5)CC4)c3c2c1
AC50: > 30 µM (inactive)

N#Cc1c(Cl)c(Cl)c2nnc(-c3ccc(Br)cc3)n2c1Cl
AC50: 20.6 µM

CCOC(=O)c1c2c(n(C)c1C)C(=O)C(=O)c1ccc(Br)cc1-2
AC50: 15 µM

CCOC(=O)Cc1c[nH]c2ccccc12
AC50: > 30 µM (inactive)

COc1cccc(NC(=O)c2cnc[nH]2)c1
AC50: > 30 µM (inactive)

CCSc1ncnc2c1sc1nc3c(cc12)COC(C)(C)C3
AC50: > 30 µM (inactive)

N#CCSc1nnc(-c2ccc3c(c2)OCO3)o1
AC50: 18.1 µM

CCCCn1c(O)c(C=NCCCn2ccnc2)c(=O)[nH]c1=O
AC50: 5.81 µM

CC(NC(=O)COc1ccccc1F)C1CC2CCC1C2 (configuration not stated)
AC50: > 30 µM (inactive)

Cc1sc(NC(=O)CSc2nc(N)cc(N)n2)c(C#N)c1C
AC50: > 30 µM (inactive)

CCCCCCCCOC(=O)C1=C(C)Nc2nnnn2C1c1cccs1 (configuration not stated)
AC50: > 30 µM (inactive)

O=C(CN1CCCCCC1)Nc1ccccc1Oc1ccccc1
AC50: > 30 µM (inactive)

O=c1cc[nH]c2ccc(OC(F)(F)F)cc12
AC50: > 30 µM (inactive)

O=C(COC(=O)CCc1ccc(S(=O)(=O)N2CCOCC2)cc1)Nc1ccc(Cl)cn1
AC50: 28.4 µM

NS(=O)(=O)c1ccc(N=Nc2ccc(=O)[nH]c2O)cc1
AC50: 6.56 µM

COc1cccc(OCc2cc(C(=O)NCc3ccc4c(c3)OCO4)no2)c1
AC50: > 30 µM (inactive)

COc1ccccc1N=c1oc2c(OC)cccc2cc1C(=O)NCc1ccco1
AC50: > 30 µM (inactive)

O=C(Nc1ccsc1C(=O)O)c1ccc(Cl)cc1
AC50: > 30 µM (inactive)

CC(C)(C)NCC(O)COc1ccccc1C(C)(C)C (configuration not stated)
AC50: > 30 µM (inactive)

C=CC(=O)Nc1sc2c(c1C(N)=O)CCCC2
AC50: 13.9 µM

CC(C)(C)N1C(=O)c2ccc(C(=O)O)cc2C1=O
AC50: > 30 µM (inactive)

CC1=C(C(=O)OCc2ccc3c(c2)OCO3)C(c2ccc(F)cc2)NC(=O)N1 (configuration not stated)
AC50: 20.3 µM

Cc1ccc(S(=O)(=O)Nc2cccc3cccnc23)cc1
AC50: > 30 µM (inactive)

Cc1ccc(-c2cc(-c3n[nH]c(=S)o3)c3ccccc3n2)cc1
AC50: 27.7 µM

Cc1cc(=O)[nH]c2cc(O)ccc12
AC50: > 30 µM (inactive)

CCOC(=O)c1cc(CC)sc1NC(=O)C1CC1
AC50: > 30 µM (inactive)

O=C(O)Cn1cc(/C=N/NC(=O)c2cc3cc(Br)ccc3o2)c2ccccc21
AC50: 6.05 µM

CC1(C)Cc2c(sc3ncn(N)c(=N)c23)CO1
AC50: > 30 µM (inactive)

COc1ccc(-c2cc(=O)oc3cc(O)ccc23)cc1
AC50: 19.5 µM

CCn1ncc([N+](=O)[O-])c1C(=O)N1CCCC1
AC50: > 30 µM (inactive)

C[C@H]1CCCC(=O)CCCCCc2cc(O)cc(O)c2C(=O)O1
AC50: 28.3 µM

COC(=O)C1=C(C)Nc2ncnn2C1c1ccco1 (configuration not stated)
AC50: > 30 µM (inactive)

COc1cccc(CNc2nc(C(F)(F)F)nc3ccccc23)c1
AC50: > 30 µM (inactive)

CC(C)CSc1ncnc2c1oc1nc3c(cc12)COC(C)(C)C3
AC50: > 30 µM (inactive)

CCOc1ccc(-c2nnc(N)s2)cc1
AC50: > 30 µM (inactive)

Cc1nc(NCC2CCCO2)nc2c1C(=O)CC(C)(C)C2 (configuration not stated)
AC50: > 30 µM (inactive)

S=C(Nc1ccc(Nc2ccccc2)cc1)Nc1ccccn1
AC50: > 30 µM (inactive)

CC(=O)Nc1cccc(-c2cnc(N)c(C(=O)c3cccnc3)n2)c1
AC50: 0.105 µM

O=[N+]([O-])c1cc(S(=O)(=O)N2CCCC2)ccc1NCCCN1CCOCC1
AC50: > 30 µM (inactive)

Oc1ccc2oc3c(c2c1/C=N/n1cnnc1)CCCC3
AC50: > 30 µM (inactive)

O=C(CCc1nnc(-c2ccc3c(c2)OCO3)o1)N1CCC(c2ccc(F)cc2)C1 (configuration not stated)
AC50: 10 µM

C=CCn1c(O)c(C(C)=NCCCn2ccnc2)c(=O)[nH]c1=O
AC50: 19.4 µM

CCNc1nc(NCC)nc(C(=O)OCCO)n1
AC50: > 30 µM (inactive)

COc1ccc(-c2c(C(C)=O)c(C)nc3sc4c(=O)[nH]nnc4c23)cc1
AC50: 30.1 µM

COc1ccc([N+](=O)[O-])cc1NC(=O)CCN1CCN(CCO)CC1
AC50: > 30 µM (inactive)

COc1ccc(-c2cc(C(F)(F)F)nc(SCC(=O)NCc3ccco3)n2)cc1OC
AC50: > 30 µM (inactive)

COc1ccc(C(CNc2ccc(S(=O)(=O)N3CCCC3)cc2[N+](=O)[O-])N2CCCC2)cc1 (configuration not stated)
AC50: > 30 µM (inactive)

CC(C)NC(=O)Nc1n[nH]c(Nc2ccc(Cl)cc2)n1
AC50: 4.87 µM

CSc1nnc([C@@H](N)Cc2c[nH]c3ccccc23)o1
AC50: > 30 µM (inactive)

O=C(NCCN1CCN(Cc2ccccc2Cl)CC1)Nc1ccccc1
AC50: > 30 µM (inactive)

CCOC(=O)CCc1c(C)c2ccc(O)cc2oc1=O
AC50: > 30 µM (inactive)

CCN(CC)CCCN(Cc1cc2cc3c(cc2[nH]c1=O)OCO3)C(=O)Nc1ccccc1OC
AC50: > 30 µM (inactive)

CCOc1ccc2nnc(-c3ccc(Br)cc3)n2n1
AC50: > 30 µM (inactive)

Cc1onc(-c2ccccc2Cl)c1C(=O)Nc1ccc(-c2cn3cccnc3n2)cc1
AC50: > 30 µM (inactive)

c1ccc(-c2noc(-c3ccc4c(c3)OCO4)n2)cc1
AC50: > 30 µM (inactive)

CN(Cc1nc2c(s1)CCCC2)C(=O)CCc1nnc(-c2ccccc2)o1
AC50: > 30 µM (inactive)

CCOc1cccc(-c2c(C(=O)N/N=C(\C)c3ccccn3)nnn2-c2nonc2N)c1
AC50: 2.56 µM

O=[N+]([O-])c1ccc(NCCCN2CCOCC2)c([N+](=O)[O-])c1
AC50: > 30 µM (inactive)

CCOC(=O)N1CC=C2C(C#N)=C(N)C(C#N)(C#N)[C@H](c3cccs3)[C@H]2C1
AC50: 22.1 µM

O=C(NC1(C(F)(F)F)NC(=O)N(Cc2cccnc2)C1=O)c1ccncc1 (configuration not stated)
AC50: > 30 µM (inactive)

Cc1ccc(CSCCNC(=O)c2ccc(C)cc2)cc1
AC50: > 30 µM (inactive)

Cc1ccc(-c2nnc(CSc3nnc(C)s3)o2)cc1
AC50: > 30 µM (inactive)

Cc1cc2nc(-c3cccnc3SCC(=O)NCc3ccco3)[nH]c2cc1C
AC50: > 30 µM (inactive)

Nc1ncnc2nc(SCc3ccc(Cl)cc3Cl)[nH]c12
AC50: > 30 µM (inactive)

COC(=O)CCCCCCCCC(O)CN(C)C (configuration not stated)
AC50: > 30 µM (inactive)

Nc1nc(NCCc2ccccc2)nc(NCc2ccccc2)c1[N+](=O)[O-]
AC50: 1.66 µM

CC(=O)Oc1ccc(C(=O)c2ccccc2)c(OC(C)=O)c1
AC50: > 30 µM (inactive)

O=C(NC1CCCC1)c1ccc(Cn2c(=O)[nH]c3ccsc3c2=O)cc1
AC50: > 30 µM (inactive)

CCOC(=O)c1nnn(-c2nonc2N)c1-c1ccccc1Cl
AC50: 8.37 µM

Cn1c2ccc(Cl)cc2c2nc3ccccc3nc21
AC50: > 30 µM (inactive)

CC1(C)Cc2cccc(C(=O)Nc3ccc(Cl)cc3)c2O1
AC50: > 30 µM (inactive)

COC(=O)c1cn(-c2ccccc2)nc1-c1cccnc1
AC50: > 30 µM (inactive)

CCC(CO)Nc1ncc([N+](=O)[O-])cc1C#N (configuration not stated)
AC50: > 30 µM (inactive)

O=[N+]([O-])c1ccc(COc2ccccc2/C=N/O)cc1
AC50: > 30 µM (inactive)

CC(C)(C)c1ccc(/C=C2\Oc3cc(O)ccc3C2=O)cc1
AC50: > 30 µM (inactive)

CC(=O)Nc1cccc(-c2csc(NCc3ccccc3)n2)c1
AC50: > 30 µM (inactive)

COc1ccc(C2c3sc(=O)[nH]c3SC3C4CCC(C4)C23)cc1OC (configuration not stated)
AC50: 1.92 µM

CC(Oc1ccc(Br)cc1)C(=O)N1CCC(C(N)=O)CC1 (configuration not stated)
AC50: > 30 µM (inactive)

COC(=O)C1=C(C)Nc2[nH]c(=S)[nH]c(=O)c2C1c1ccc(O)cc1 (configuration not stated)
AC50: > 30 µM (inactive)
